Where two headings read alike, the source gives them in different places.

Data set [1] in a line: Plasma carbidopa Cmax after SC administration of several carbidopa doses, clinical trial ND0612-005a and ND0612-005b (Example 2b). The class given is in vivo, subjects (human). The note with it: SC over 24 hours; 60 mg/ml levodopa with 7.5, 6 or 4 mg/ml carbidopa; 17.9, 26.9, 33.6 mg/24 h carbidopa. How it is done: In a separate clinical trial (ND0612-005a and ND0612-005b, open label design studies), the plasma carbidopa levels were tested in view of the subcutaneous administration of several carbidopa doses. Three formulations, comprising 60 mg/ml levodopa and (a) 7.5 mg/ml; (b) 6 mg/ml; or 4 mg/ml of carbidopa, were administered to three groups of subjects over the course of 24 hours, providing a total of 17.9 mg/24 h carbidopa to each subject in the first group, 26.9 mg/24 h carbidopa to each subject in the second group and 33.6 mg/24 h carbidopa to each subject in the third group.

The nature of data set [2]: Dose proportionality of SC LD/CD, clinical trial ND0612-001 (Example 2a). Type of data set: in vivo, healthy male subjects (human). The note with it: 24 hour continuous SC infusion of LD (6% w/w)/CD (1.4% w/w) at 80, 120, 160, 200, 240 μl/h. How it is done: Subjects were administered with a composition comprising LD (6% w/w)/CD (1.4% w/w) by way of a 24 hour continuous infusion at varying infusion rates: • Group 1: 80 μl/h • Group 2: 120 μl/h • Group 3: 160 μl/h • Group 4: 200 μl/h • Group 5: 240 μl/h Several PK parameters were derived for both LD and CD in the dose proportionality assessment, including AUC (hr*ng/mL), Cmax (ng/mL), C15 (ng/mL), and C24 (ng/mL).

Data set [3] in a line: Plasma exposure of LD and CD after SC infusion, oral IR tablet, and SC + oral coadministration (crossover, Example 1). The class given is in vivo, healthy subjects (human). The note with it: for 1. Treatment A AUC (0-8) × 0.853* / AUC(0-t): human; for 1. Treatment A AUC (0-8) × 0.853*: sc. From the text:
A test was run in order to assess the plasma exposure of levodopa (LD) following the coadministration of LD and carbidopa (CD) in both subcutaneous (SC) and oral administrations. Accordingly, results obtained from a combined SC+oral administration were compared to results obtained from SC administration alone and from oral administration alone. An additive plasma exposure and PK profile was expected, i.e., it was expected that the SC+oral coadministration would provide results equal to the additive results of the SC and oral administrations, when each was administered separately.
16 healthy subjects (18-50 years) were treated in a crossover manner, i.e., sequentially, with a washout period of 6 days between the following two treatments:
Treatment A: A total dose of 180/22.5 mg LD/CD (formulation A) was administered by SC infusion over the course of 8 hours, at a steady infusion rate.
Treatment B: An immediate release (IR) tablet of 100/25 mg LD/CD was administered orally at time 0 h.
Following a 32 hour washout period, the same 16 healthy subjects were administered with LC/CD both orally and subcutaneously according to the following treatment:
Treatment C: A dose of 153.6/19.2 LD/CD (formulation A) was administered by SC infusion over the course of 8 hours, at a steady infusion rate, combined with a single co-administration of an oral IR LD/CD 100/25 mg tablet, 4 hours after the initiation of the infusion. Total LD/CD dose: 253.6/44.2 mg.
Blood samples were collected at the following time points:
Treatment A: 0 (prior to treatment initiation), 0.5 h, 1 h, 2 h, 3 h, 4 h, 5 h, 5.5 h, 6 h, 7 h, 8 h (prior to the end of the infusion).
Treatment B: 0 (prior to treatment initiation), 0.5 h, 1 h, 2 h, 3 h, 4 h.
The normalized AUC0-8 of LD and CD of Treatment C, resulting from the combined SC and oral treatment, as described above, was calculated and compared to the sum of the normalized LD and CD AUCs obtained from Treatment A (AUC0-8 resulting from 8 h SC infusion) and Treatment B (AUC0-4 resulting from one IR oral tablet).

Data set [4] can be described thus: in vivo. The settings on record: for AUC: female, pig, in vivo, sc, 600 mg, SC treatment AUC (G1) Actual. How it is done: The objective of this study was to determine the pharmacokinetics (PK) of levodopa (LD) in domestic pigs following continuous subcutaneous (SC) infusion of a levodopa prodrug, exemplified using LD-Tyr, administered concomitantly with oral Levodopa.
Table 3 provides the LD-Tyr formulation tested in this study: […]
The study consisted of 3 dosing sessions in which 5 female pigs (Swine/Landrace×large White, ˜40-50 kg each) were treated with the LD-Tyr solution of Table 3 and/or Sinemet IR oral tablets (CD/LD 25/100 mg tablet) in a cross-over design with up to 4-day washout period between dosing sessions, as detailed in the following tables:
As presented in Tables 4 and 5 above, the study included the following three test groups: • G1—received only SC LD-Tyr (600 mg total daily dose); • G2—received only oral LD (300 mg total daily dose); and • G3—received both SC LD-Tyr (600 mg total daily dose) and oral LD (200 mg total daily dose). Pharmacokinetics Blood Collection
Blood samples for the determination of LD-Tyr (in groups 1 and 3), as well as LD and CD plasma levels (in all groups) were collected from the pigs at the following timepoints: • 0 (pre-dose), 30 min, 1 h, 2 h, 3 h, 4 h, 4.5 h, 5 h, 6 h, 7 h, 8 h, 8.5 h, 9 h, 10 h, 11 h, 13 h, 15 h 18 h following treatment initiation. In case of pump occlusion (groups 1 and 3) resulting in infusion cessation, no further blood samples will be collected. Tablets were administrated before blood collection (time 0, 4 and 8 h). Bioanalysis
Plasma samples were analyzed for concentration of LD-Tyr (groups 1 and 3), as well as LD and CD (for all groups) using a qualified LC-MS/MS analytical method.
PK parameters (at least Cmax, tmax, t1/2, AUC) for LD-Tyr, LD and CD were calculated by noncompartmental methods using appropriate software (e.g. Phoenix® WinNonlin®). Individual and mean was calculated for quantitative parameters.
The LD exposure obtained from the SC infusion is considered to be the baseline.

Turning to `C[C@@](Cc1ccc(O)c(O)c1)(NN)C(=O)O` [CD, carbidopa], the “dose proportionality of carbidopa Cmax” value in data set [1] was “clear dose proportionality”. In data set [2], the “dose proportionality of PK parameters (AUC, Cmax, C15, C24)” value is given as “demonstrated dose proportionality”. Further, the “1. Treatment A AUC (0-8) × 0.853*” value in data set [3] (in vivo) was found to be 900. Further, the AUC(0-t) in data set [3] (in vivo, plasma CD, formulation A 153.6/19.2 LD/CD SC infusion over 8 h + oral IR LD/CD 100/25 mg tablet at 4 h, individual subjects, read-out: 4. Treatment C AUC (0-8) [Observed]) turned out to be 1050 ng·h/mL; in data set [3] (in vivo, plasma CD, formulation A 180/22.5 mg LD/CD SC infusion over 8 h, AUC multiplied by 0.853, individual subjects, read-out: 1. Treatment A AUC (0-8) × 0.853*), 942 ng·h/mL; in data set [3] (in vivo, plasma CD, oral IR tablet 100/25 mg LD/CD at 0 h, individual subjects, read-out: 2. Treatment B AUC (0-4)), 322 ng·h/mL. Further, the “Observed (C) vs. Additive Ratio” value in data set [3] (in vivo) is “lower than expected”.

With `N[C@@H](Cc1ccc(O)c(O)c1)C(=O)O` [LD, L-3,4-dihydroxyphenylalanine], the AUC in data set [4] (Landrace x large White) is 17600 ng·h/mL; in data set [4] (plasma LD AUC, pigs, SC LD-Tyr/CD 600/26 mg over 8 hrs only, individual animals) it was 18000 ng·h/mL. Moreover, the “increase of LD plasma exposure by oral add-ons on top of SC administration, versus predicted (average)” value in data set [4] (pigs, SC LD-Tyr/CD + oral LD/CD) was “over 50%”. Besides, in data set [2], the “dose proportionality of PK parameters (AUC, Cmax, C15, C24)” value is on record as “demonstrated dose proportionality”. Also, the “1. Treatment A AUC (0-8) × 0.853*” value in data set [3] (in vivo) is on record as 2412. The AUC(0-t) in data set [3] (in vivo, plasma LD, formulation A 153.6/19.2 LD/CD SC infusion over 8 h + oral IR LD/CD 100/25 mg tablet at 4 h, individual subjects, read-out: 4. Treatment C AUC (0-8) [Observed]) stood at 4770 ng·h/mL; in data set [3] (in vivo, plasma LD, formulation A 180/22.5 mg LD/CD SC infusion over 8 h, AUC multiplied by 0.853 to equal SC dose of Treatment C, individual subjects, read-out: 1. Treatment A AUC (0-8) × 0.853*) it was 2310 ng·h/mL; in data set [3] (in vivo, plasma LD, oral IR tablet 100/25 mg LD/CD at 0 h, individual subjects, read-out: 2. Treatment B AUC (0-4)) it was 1420 ng·h/mL; in data set [3] (plasma LD, formulation A 180/22.5 mg LD/CD SC infusion over 8 h, AUC multiplied by 0.853 to equal SC dose of Treatment C, individual subjects, read-out: 1. Treatment A AUC (0-8) × 0.853*), 3090 ng·h/mL. The “Observed (C) vs. Additive Ratio” value in data set [3] (in vivo) is reported as “higher than expected”. The “3. Combined 1 + 2 [Estimated]” value in data set [3] (plasma LD, sum of normalized Treatment A and Treatment B AUCs, individual subjects) was 3087.

As usually defined, the AUC is concentration integrated over time.

Values taken from US11844754B2, “Methods for treatment of Parkinson's disease” (NeuroDerm, Ltd., priority 2020, dated 2023).
